Assay results published in ChEMBL document CHEMBL5038596, “Design, Synthesis, In Vitro and In Vivo Characterization of Selective NKCC1 Inhibitors for the Treatment of Core Symptoms in Down Syndrome” (J Med Chem, 2021).
Activity calls are given as the source filed them. The calls are words filed in the database; no cut-off is given here.

Key:
[1] = tested on: Mus musculus; assay: Cognitive enhancement effect in Ts65Dn mouse assessed as rescue of electric shock induced freezing response at 0.6 mg/kg, ip measured after 1 to 4 weeks by contextual fear-conditioning test; format: functional, organism-based; details: time 1-4 weeks
[2] = Toxicity in mouse assessed as reduction in body weight at 0.6 mg/kg, ip administered daily for 3 weeks; format: organism-based; details: in vivo, 504 h
[3] = Toxicity in Ts65Dn mouse assessed as reduction in body weight at 0.6 mg/kg, ip administered daily for 3 weeks; format: organism-based; details: in vivo, 504 h
[4] = tested on: Mus musculus; assay: Diuretic activity in Ts65Dn mouse assessed as increase in urine volume at 0.6 mg/kg, ip measured after 2 hrs; format: functional, organism-based
[5] = tested on: Mus musculus; assay: Rescue of hyperactivity in Ts65Dn mouse assessed as assessed as reduction in total distance travelled at 0.6 mg/kg, ip measured after 1 to 4 weeks by open field test; format: functional, organism-based; details: time 1-4 weeks
[6] = molecular target: T1, Solute carrier family 12 member 2 (Homo sapiens) (UniProt P55011); assay: Inhibition of NKCC1 (unknown origin) transfected in HEK293 cells expressing mbYFPQS plasmid assessed as reduction in Cl- influx at 10 uM incubated for 30 mins by fluorescence multiplate reader analysis; format: cell-based
T1 sequence (whole entry): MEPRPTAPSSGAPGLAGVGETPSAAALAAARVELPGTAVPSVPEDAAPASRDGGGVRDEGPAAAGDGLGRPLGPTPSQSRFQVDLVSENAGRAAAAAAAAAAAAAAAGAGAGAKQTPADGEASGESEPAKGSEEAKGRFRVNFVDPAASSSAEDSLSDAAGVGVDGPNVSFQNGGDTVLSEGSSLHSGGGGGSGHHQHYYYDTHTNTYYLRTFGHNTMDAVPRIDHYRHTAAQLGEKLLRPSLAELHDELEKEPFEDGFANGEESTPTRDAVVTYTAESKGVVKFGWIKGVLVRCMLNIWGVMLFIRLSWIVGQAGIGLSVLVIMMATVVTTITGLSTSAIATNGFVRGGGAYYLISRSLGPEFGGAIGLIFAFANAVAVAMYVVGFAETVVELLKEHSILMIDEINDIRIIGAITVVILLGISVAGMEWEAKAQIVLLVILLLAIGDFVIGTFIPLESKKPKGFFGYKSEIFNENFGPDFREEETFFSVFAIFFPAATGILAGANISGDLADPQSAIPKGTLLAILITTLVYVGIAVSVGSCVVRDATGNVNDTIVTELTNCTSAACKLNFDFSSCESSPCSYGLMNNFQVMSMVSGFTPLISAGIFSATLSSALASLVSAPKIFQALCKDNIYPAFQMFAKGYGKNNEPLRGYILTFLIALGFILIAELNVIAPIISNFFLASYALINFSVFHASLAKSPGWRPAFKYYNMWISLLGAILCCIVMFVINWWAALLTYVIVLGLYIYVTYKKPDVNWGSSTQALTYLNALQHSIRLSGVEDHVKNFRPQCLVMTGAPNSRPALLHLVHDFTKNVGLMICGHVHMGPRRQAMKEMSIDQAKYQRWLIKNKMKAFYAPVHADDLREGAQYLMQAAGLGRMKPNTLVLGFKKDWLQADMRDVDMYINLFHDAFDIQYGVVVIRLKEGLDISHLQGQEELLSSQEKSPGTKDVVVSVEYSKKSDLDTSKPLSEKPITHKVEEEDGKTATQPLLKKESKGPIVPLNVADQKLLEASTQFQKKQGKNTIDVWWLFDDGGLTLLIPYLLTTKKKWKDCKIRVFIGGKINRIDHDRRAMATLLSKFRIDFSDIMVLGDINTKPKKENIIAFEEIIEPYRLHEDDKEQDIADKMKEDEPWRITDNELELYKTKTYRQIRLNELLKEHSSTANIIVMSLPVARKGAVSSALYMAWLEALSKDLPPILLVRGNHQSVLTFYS

[7] = molecular target: T2, Solute carrier family 12 member 5 (Homo sapiens) (UniProt Q9H2X9); assay: Inhibition of KCC2 (unknown origin) transfected in HEK293 cells assessed a reduction in TI influx at 10 uM incubated for 1 hr by fluorescence based analysis relative to control; format: cell-based
T2 sequence (whole entry): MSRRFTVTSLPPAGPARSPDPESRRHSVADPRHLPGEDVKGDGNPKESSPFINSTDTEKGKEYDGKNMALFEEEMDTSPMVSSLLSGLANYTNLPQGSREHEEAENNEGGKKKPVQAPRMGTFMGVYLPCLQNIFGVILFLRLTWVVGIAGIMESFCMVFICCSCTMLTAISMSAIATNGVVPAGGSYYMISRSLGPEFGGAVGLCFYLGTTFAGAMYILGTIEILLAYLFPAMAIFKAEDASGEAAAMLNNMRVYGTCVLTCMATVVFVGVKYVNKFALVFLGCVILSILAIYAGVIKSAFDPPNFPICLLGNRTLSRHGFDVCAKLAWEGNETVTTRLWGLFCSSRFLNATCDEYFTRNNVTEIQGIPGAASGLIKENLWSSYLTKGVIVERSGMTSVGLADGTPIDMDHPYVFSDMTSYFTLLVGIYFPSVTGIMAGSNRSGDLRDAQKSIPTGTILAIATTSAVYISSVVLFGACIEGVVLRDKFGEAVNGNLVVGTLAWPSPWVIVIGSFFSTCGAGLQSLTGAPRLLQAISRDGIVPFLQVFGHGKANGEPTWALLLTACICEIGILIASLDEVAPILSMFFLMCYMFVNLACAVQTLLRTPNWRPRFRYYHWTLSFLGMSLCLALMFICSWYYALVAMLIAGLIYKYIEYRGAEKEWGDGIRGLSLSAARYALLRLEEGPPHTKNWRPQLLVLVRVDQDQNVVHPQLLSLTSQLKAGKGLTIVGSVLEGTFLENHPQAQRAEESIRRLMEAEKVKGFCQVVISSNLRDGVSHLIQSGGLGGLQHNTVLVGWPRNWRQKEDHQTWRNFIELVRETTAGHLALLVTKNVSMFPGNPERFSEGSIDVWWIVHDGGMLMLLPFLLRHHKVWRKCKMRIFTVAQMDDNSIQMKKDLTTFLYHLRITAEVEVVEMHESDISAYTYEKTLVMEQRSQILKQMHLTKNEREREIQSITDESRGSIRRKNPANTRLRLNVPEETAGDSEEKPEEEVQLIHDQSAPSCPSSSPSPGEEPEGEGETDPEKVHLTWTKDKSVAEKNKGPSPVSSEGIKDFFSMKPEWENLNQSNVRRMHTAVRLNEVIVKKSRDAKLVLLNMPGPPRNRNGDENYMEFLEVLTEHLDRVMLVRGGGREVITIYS

[8] = tested on: Mus musculus; assay: Cognitive enhancement effect in Ts65Dn mouse assessed as rescue of poor novel-discrimination ability by measuring increase in time spent in exploring novel object at 0.6 mg/kg, ip measured after 1 to 4 weeks by novel object recognition test; format: functional, organism-based; details: time 1-4 weeks
[9] = tested on: Mus musculus; assay: Cognitive enhancement effect in Ts65Dn mouse assessed as restoration of short-term working memory by measuring number of correct choices at 0.6 mg/kg, ip measured after 1 to 4 weeks by T-maze test; format: functional, organism-based; details: time 1-4 weeks
[10] = tested on: Mus musculus; assay: Diuretic activity in wild type mouse assessed as increase in urine volume at 0.6 mg/kg, ip measured after 2 hrs; format: functional, organism-based
[11] = Solubility of compound in assay buffer at pH 7.4 assessed as precipitation at 100 uM measured after 15 mins; format: physicochemical; details: pH 7.4, 0.25 h
[12] = tested on: Primary neuron; assay: Inhibition of NKCC1 in mouse primary hippocampal neurons assessed as reduction of Ca2+ uptake at 100 uM incubated for 15 mins by Fluo-4AM dye based fluorescence analysis; format: cell-based
[13] = molecular target: T1, Solute carrier family 12 member 2 (Homo sapiens); assay: Inhibition of NKCC1 (unknown origin) transfected in HEK293 cells expressing mbYFPQS plasmid assessed as reduction in Cl- influx at 100 uM incubated for 30 mins by fluorescence multiplate reader analysis; format: cell-based
[14] = Solubility of compound in Cl- free hypotonic solution at pH 7.4 assessed as precipitation at 100 uM measured after 30 mins; format: physicochemical; details: buffer, pH 7.4, 0.5 h

Compound: CN(C)S(=O)(=O)c1cc(C(=O)O)c(O)cc1NCCCCCCCC(F)(F)F
- Activity [1]: Active
- Activity [2]: Non-Toxic
- Activity [3]: Non-Toxic
- Activity [4]: inactive
- Activity [5]: Active
- inhibition [6]: inactive
- inhibition [7]: inactive
- Activity [8]: Active
- Activity [9]: Active
- Activity [10]: inactive

Compound: CCCCCCNc1ccc([N+](=O)[O-])cc1S(=O)(=O)N(C)C
- inhibition [6]: inactive

Compound: O=C(O)c1ccc(NCCCCCCCC(F)(F)F)c(S(=O)(=O)NC2CCCC2)c1
- solubility [11]: Insoluble
- inhibition [12]: inactive

Compound: CCCCCCNc1ccc([N+](=O)[O-])cc1S(N)(=O)=O
- inhibition [6]: inactive

Compound: COCCCCNc1ccc(C(=O)O)cc1S(=O)(=O)N(C)C
- inhibition [6]: inactive

Compound: CN(C)S(=O)(=O)c1cc(C(=O)O)c(OC2CCCC2)cc1NCCCCCCCC(F)(F)F
- solubility [11]: Insoluble
- inhibition [12]: inactive

Compound: CCCCCCNc1ccc(C(=O)O)cc1S(=O)(=O)NC
- inhibition [13]: inactive
- inhibition [6]: inactive

Compound: CN(C)S(=O)(=O)c1cc(C(=O)O)ccc1NCCCC(F)(F)F
- inhibition [6]: inactive

Compound: CN(C)S(=O)(=O)c1cc(C(=O)O)ccc1NCCC(C)(C)C
- inhibition [13]: inactive
- inhibition [6]: inactive

Compound: CCCCCCCCNc1ccc(C(=O)O)cc1S(=O)(=O)N(C)C
- inhibition [6]: inactive

Compound: CCCCNc1ccc(C(=O)O)cc1S(N)(=O)=O
- inhibition [6]: inactive

Compound: CC(C)(C)CCNc1ccc(C(=O)O)cc1S(N)(=O)=O
- inhibition [6]: inactive

Compound: CC(C)(C)CCNc1ccc([N+](=O)[O-])cc1S(N)(=O)=O
- inhibition [6]: inactive

Compound: CCCCCCCCNc1ccc([N+](=O)[O-])cc1S(=O)(=O)N(C)C
- inhibition [13]: inactive
- inhibition [6]: inactive

Compound: CCCCCCCCNc1ccc([N+](=O)[O-])cc1S(=O)(=O)NC
- inhibition [13]: inactive
- inhibition [6]: inactive

Compound: CCCCCCNc1ccc(C(=O)O)cc1S(=O)(=O)N(C)C
- inhibition [6]: inactive

Compound: COCCCCCCNc1ccc(C(=O)O)cc1S(=O)(=O)N(C)C
- inhibition [13]: inactive
- inhibition [6]: inactive

Compound: CCCCNc1ccc([N+](=O)[O-])cc1S(N)(=O)=O
- inhibition [6]: inactive

Compound: CN(C)S(=O)(=O)c1cc([N+](=O)[O-])ccc1NCCC(C)(C)C
- solubility [14]: Insoluble

Compound: CCCCCCNc1ccc(C(=O)O)cc1S(N)(=O)=O
- inhibition [6]: inactive

Compound: CCCCNc1ccc([N+](=O)[O-])cc1S(=O)(=O)NC
- inhibition [6]: inactive

Compound: CNS(=O)(=O)c1cc(C(=O)O)ccc1NCCC(C)(C)C
- inhibition [6]: inactive

Compound: O=C(O)c1ccc(NCCCCCCCC(F)(F)F)c(S(=O)(=O)N2CCCCC2)c1
- solubility [11]: Insoluble
- inhibition [12]: inactive

Compound: CCCCCCCCNc1ccc(C(=O)O)cc1S(N)(=O)=O
- inhibition [6]: inactive

Compound: CCCCNc1ccc([N+](=O)[O-])cc1S(=O)(=O)N(C)C
- solubility [14]: Insoluble
- inhibition [6]: inactive

Compound: O=C(O)c1ccc(NCCCCCCCC(F)(F)F)c(S(=O)(=O)NC2CCCCC2)c1
- solubility [11]: Insoluble
- inhibition [12]: inactive

Compound: CCCCNc1cc(C(=O)O)cc(S(N)(=O)=O)c1Oc1ccccc1
- Activity [4]: Active
- Activity [10]: Active

Compound: CN(C)S(=O)(=O)c1cc(C(=O)O)ccc1NCCCCCC(F)(F)F
- inhibition [6]: inactive
